Where two headings read alike, the source gives them in different places.
What was measured:
S. aureus RN450 = assay: In Vitro Anti-Bacterial Activity Assay (MIC), gram positive; type: cell-based; conditions: for MIC: Staphylococcus aureus, RN450, 18 h
E. coli mL308 225 = assay: In Vitro Anti-Bacterial Activity Assay (MIC), gram negative; type: cell-based; conditions: for MIC: Escherichia coli, ML308225, 18 h
[1] = tested on: cultured murine cortical neurons; assay: Protection of Cultured Cortical Neurons from Excitotoxic Injury Induced by NMDA (NE Assay); type: cell-based, mice; conditions: NMDA 62.5 μM, LDH release 24 hours after starting the exposure
Procedure: Primary cortical astrocyte cultures were prepared from one-day old mice, as described in the literature procedure (Tikka, T M et al. J Immunol. 2001 Jun. 15; 166(12):7527-33). After decapitation, the forebrain cortices were collected, cleaned from meninges and, after mincing, dissociated by incubation in papain/Dnase solution followed by trituration. The dissociated cells were suspended in a culture medium consisting of Eagle's minimal essential medium (MEM) with 10% heat-inactivated fetal bovine serum and glutamine (2 mM) and plated in 75 cm^2 cell culture flasks. The medium was replaced with fresh culture medium at day 7. At confluence (day 12-15), the astrocytes were trypsinized and re-plated into 24-well culture vessels. On day 7-8, the neurons were cultured on top of these confluent astrocyte monolayers.
Cortical neuron suspensions were prepared from embryonic day 17 mice. The cortices were collected and meninges removed. The tissue was minced into small pieces and incubated in trypsin solution. The tissue was suspended using a pipette and after centrifugation resuspended and plated on top of astrocyte cultures at a density of 250,000 cells/well to 24-well culture vessel in Eagle's minimal essential medium (MEM, Earle's salts) supplemented with 20 mM glucose, 2 mM glutamine, 10% fetal bovine serum, and 10% heat-inactivated horse serum (HS). Medium was changed after 5 days to MEM containing 20 mM glucose, 2 mM glutamine, and 10% HS, as well as cytosine arabinoside (final concentration 10 μM) to inhibit cell division, and incubated for 2 days. Subsequently, cultures were fed twice weekly with MEM supplemented with 20 mM glucose, 2 mM glutamine and 10% HS, and used at day 12-15.
On the day of experiment, the culture medium was replaced with 1) MEM, 2) MEM containing the test tetracycline compounds. Positive control drug included 10 μM MK-801 (Sigma). […] As a control for total neuronal death, a 24 hour incubation with 500 μM NMDA was used (100% cell death control).
The cell viability was assessed by measuring lactate dehydrogenase (LDH) release 24 hours after starting the exposure. The LDH release to the culture medium was measured from cell-free medium using Sigma LDH reagent employing kinetic measurement of conversion of lactate to pyruvate using NADH as a cofactor. The rate of increase in absorbance at 340 nm was directly proportional to the activity of LDH in the sample, and was measured with a Labsystems Multiskan ELISA reader.

[2] = MIC class, Table 3, read-out: Antibiotic Activity Gram +
[3] = MIC class, Table 3, read-out: Antibiotic Activity Gram −
[4] = MIC class, Table 3 (Continued), read-out: Gram+ activity
[5] = MIC class, Table 3 (Continued), read-out: Gram− activity
[6] = gram positive bacteria, read-out: Antibiotic Activity Gram + (MIC)
[7] = gram negative bacteria, read-out: Antibiotic Activity Gram − (MIC)

| Structure (SMILES) | MIC (S. aureus RN450; [2]) | MIC (E. coli mL308 225; [3]) | MIC (S. aureus RN450; [6]) | MIC (E. coli mL308 225; [7]) | further results |
| --- | --- | --- | --- | --- | --- |
| CCC(=O)O[C@H]1[C@H]2C(=C(O)[C@]3(O)C(=O)C(C(N)=O)=C(O)[C@@H](N(C)C)[C@H]13)C(=O)c1c(O)cccc1[C@@H]2C [M] | < 4 µg/mL | > 4 µg/mL | – | – | neuroprotection (cell viability by LDH release) [1]: good neuroprotection |
| CN(C)Cc1ccc(O)c2c1C[C@H]1C[C@H]3[C@@H](N(C)C)C(O)=C(C(N)=O)C(=O)[C@@]3(O)C(O)=C1C2=O [KF] | < 4 µg/mL | < 4 µg/mL | – | – | neuroprotection (cell viability by LDH release) [1]: good neuroprotection |
| CN(C)[C@H]1C(O)=C(C(N)=O)C(=O)[C@@]2(O)C(O)=C3C(=O)c4c(O)c(CN)cc(-c5ccccc5)c4C[C@H]3C[C@@H]12 [JC] | > 4 µg/mL | > 4 µg/mL | – | – | neuroprotection (cell viability by LDH release) [1]: good neuroprotection |
| C=C1c2cccc(O)c2C(=O)C2=C(O)[C@]3(O)C(=O)C(C(N)=O)=C(O)[C@@H](N(C)C)[C@@H]3[C@@H](O)[C@H]12 [C] | > 4 µg/mL | > 4 µg/mL | – | – | neuroprotection (cell viability by LDH release) [1]: good neuroprotection |
| CN(C)c1cc(NCc2ccc3c(c2)OCO3)c(O)c2c1C[C@H]1C[C@H]3[C@H](N(C)C)C(O)=C(C(N)=O)C(=O)[C@@]3(O)C(O)=C1C2=O [EV] | > 4 µg/mL | > 4 µg/mL | – | – | neuroprotection (cell viability by LDH release) [1]: good neuroprotection |
| CN(C)CCCOC(=O)/C=C/c1ccc(O)c2c1C[C@H]1C[C@H]3[C@H](N(C)C)C(O)=C(C(N)=O)C(=O)[C@@]3(O)C(O)=C1C2=O [BP] | < 4 µg/mL | < 4 µg/mL | – | – | neuroprotection (cell viability by LDH release) [1]: good neuroprotection |
| CCOc1ccc(/C=C2\c3cccc(O)c3C(=O)C3=C(O)[C@]4(O)C(=O)C(C(N)=O)=C(O)[C@@H](N(C)C)[C@@H]4[C@@H](O)[C@@H]32)cc1 | – | – | – | – | MIC (S. aureus RN450; [4]): < 4 µg/mL; MIC (E. coli mL308 225; [5]): > 4 µg/mL |
| CN(C)c1cc(C#CC(=O)O)c(O)c2c1C[C@H]1C[C@H]3[C@H](N(C)C)C(O)=C(C(N)=O)C(=O)[C@@]3(O)C(O)=C1C2=O | – | – | > 4 µg/mL | > 4 µg/mL | – |
| C/C(=N\OC(C)(C)C)c1ccc(O)c2c1C[C@H]1C[C@H]3[C@H](N(C)C)C(O)=C(C(N)=O)C(=O)[C@@]3(O)C(O)=C1C2=O | – | – | < 4 µg/mL | < 4 µg/mL | – |
| CCOC(=O)Nc1cc(N(C)C)c2c(c1O)C(=O)C1=C(O)[C@]3(O)C(=O)C(C(N)=O)=C(O)[C@@H](N(C)C)[C@@H]3C[C@@H]1C2 [drawing 3364] | – | – | – | – | Antibiotic Activity Gram + (MIC) (S. aureus RN450; gram positive bacteria): ** (compounds with MIC less than or equal to 4 μg/ml are indicated with **); Antibiotic Activity Gram − (MIC) (E. coli mL308 225; gram negative bacteria): ** (compounds with MIC less than or equal to 4 μg/ml are indicated with **) |
| C[C@H]1c2cccc(O)c2C(=O)C2=C(O)[C@]3(O)C(=O)C(C(N)=O)=C(O)[C@@H](N(C)C)[C@@H]3[C@@H](O)[C@@H]21 [A] | < 4 µg/mL | < 4 µg/mL | – | – | – |
| Cc1ccc(OC(=O)NCc2cc(N(C)C)c3c(c2O)C(=O)C2=C(O)[C@]4(O)C(=O)C(C(N)=O)=C(O)[C@@H](N(C)C)[C@@H]4C[C@@H]2C3)cc1 [FG] | – | – | – | – | MIC (S. aureus RN450; read-out: Antibiotic Activity Gram +): < 4 µg/mL; MIC (E. coli mL308 225; read-out: Antibiotic Activity Gram −): > 4 µg/mL |
| C[C@H]1c2cccc(O)c2C(=O)C2=C(O)[C@]3(O)C(=O)C(C(N)=O)=C(O)[C@@H](N(C)C)[C@@H]3[C@@H](OC(=O)CCN3CCCC3)[C@@H]21 [R] | < 4 µg/mL | < 4 µg/mL | – | – | – |
| CCC(CC)c1ccc(CCc2ccc(O)c3c2C[C@H]2C[C@H]4[C@H](N(C)C)C(O)=C(C(N)=O)C(=O)[C@@]4(O)C(O)=C2C3=O)cc1 | – | – | – | – | MIC (S. aureus RN450; [4]): < 4 µg/mL; MIC (E. coli mL308 225; [5]): < 4 µg/mL |
| CN1CCN(Cc2ccc(-c3ccc(O)c4c3C[C@H]3C[C@H]5[C@@H](N(C)C)C(O)=C(C(N)=O)C(=O)[C@@]5(O)C(O)=C3C4=O)o2)CC1 [LN] | < 4 µg/mL | < 4 µg/mL | – | – | – |
| CN(C)[C@@H]1C(O)=C(C(N)=O)C(=O)[C@@]2(O)C(O)=C3C(=O)c4c(O)c(CN5CCOCC5)cc(-c5ccoc5)c4C[C@H]3C[C@@H]12 [QA] | < 4 µg/mL | < 4 µg/mL | – | – | – |
| CN(C)[C@@H]1C(O)=C(C(N)=O)C(=O)[C@@]2(O)C(O)=C3C(=O)c4c(O)c(-c5ccc6c(c5)OCO6)cc(-c5ccc6c(c5)OCO6)c4C[C@H]3C[C@@H]12 | – | – | < 4 µg/mL | > 4 µg/mL | – |
| CN(C)c1cc(CN2CCOCC2)c(O)c2c1C[C@H]1C[C@H]3[C@H](N(C)C)C(O)=C(C(N)=O)C(=O)[C@@]3(O)C(O)=C1C2=O | – | – | < 4 µg/mL | > 4 µg/mL | – |
| CN(C)[C@@H]1C(O)=C(C(N)=O)C(=O)[C@@]2(O)C(O)=C3C(=O)c4c(O)ccc(-c5ccc(CN6CCCC6)o5)c4C[C@H]3C[C@@H]12 [GY] | < 4 µg/mL | < 4 µg/mL | – | – | – |
| CCc1cc(CN2CCC(F)(F)CC2)c(O)c2c1C[C@H]1C[C@H]3[C@H](N(C)C)C(O)=C(C(N)=O)C(=O)[C@@]3(O)C(O)=C1C2=O [drawing 3695] | – | – | < 4 µg/mL | < 4 µg/mL | – |
| CN(C)[C@@H]1C(O)=C(C(N)=O)C(=O)[C@@]2(O)C(O)=C3C(=O)c4c(O)c(CNc5ccccc5)cc(I)c4C[C@H]3C[C@@H]12 | – | – | < 4 µg/mL | > 4 µg/mL | – |
| CN(C)CC#Cc1ccc(O)c2c1C[C@H]1C[C@H]3[C@H](N(C)C)C(O)=C(C(N)=O)C(=O)[C@@]3(O)C(O)=C1C2=O [AL] | < 4 µg/mL | < 4 µg/mL | – | – | – |
| C[C@H]1c2cccc(O)c2C(=O)C2=C(O)[C@]3(O)C(=O)C(C(N)=O)=C(O)[C@@H](N(C)C)[C@@H]3[C@@H](O)[C@@H]21 [drawing 3668] | – | – | – | – | Antibiotic Activity Gram + (MIC) (S. aureus RN450; gram positive bacteria): ** (compounds with MIC less than or equal to 4 μg/ml are indicated with **); Antibiotic Activity Gram − (MIC) (E. coli mL308 225; gram negative bacteria): * (compounds with an MIC of greater than 4 μg/ml are indicated with *) |
| CN(C)c1cc(CNCc2ccc(OC(F)(F)F)cc2)c(O)c2c1C[C@H]1C[C@H]3[C@H](N(C)C)C(O)=C(C(N)=O)C(=O)[C@@]3(O)C(O)=C1C2=O [PJ] | < 4 µg/mL | > 4 µg/mL | – | – | – |
| CN(C)c1cc(CCc2ccc(F)cc2)c(O)c2c1C[C@H]1C[C@H]3[C@H](N(C)C)C(O)=C(C(N)=O)C(=O)[C@@]3(O)C(O)=C1C2=O | – | – | < 4 µg/mL | < 4 µg/mL | – |
| CN(C)[C@@H]1C(O)=C(C(N)=O)C(=O)[C@@]2(O)C(O)=C3C(=O)c4c(O)ccc(C(=O)CN5CCOCC5)c4C[C@H]3C[C@@H]12 | – | – | < 4 µg/mL | > 4 µg/mL | – |
| CNCc1cc(CNCC(C)(C)C)c2c(c1O)C(=O)C1=C(O)[C@]3(O)C(=O)C(C(N)=O)=C(O)[C@@H](N(C)C)[C@@H]3C[C@@H]1C2 | – | – | > 4 µg/mL | > 4 µg/mL | – |
| CN(C)c1cc(-c2ccc(C(=O)O)cc2)c(O)c2c1C[C@H]1C[C@H]3[C@H](N(C)C)C(O)=C(C(N)=O)C(=O)[C@@]3(O)C(O)=C1C2=O | – | – | – | – | MIC (S. aureus RN450; [4]): < 4 µg/mL; MIC (E. coli mL308 225; [5]): < 4 µg/mL |
| CN(C)[C@@H]1C(O)=C(C(N)=O)C(=O)[C@@]2(O)C(O)=C3C(=O)c4c(O)ccc(-c5ccc(CNCC(F)(F)F)cc5)c4C[C@H]3C[C@@H]12 [drawing 3505] | – | – | < 4 µg/mL | < 4 µg/mL | – |
| CN(C)[C@@H]1C(O)=C(C(N)=O)C(=O)[C@@]2(O)C(O)=C3C(=O)c4c(O)ccc(-c5ccc(CNCc6cccc(Cl)c6)cc5)c4C[C@H]3C[C@@H]12 | – | – | < 4 µg/mL | < 4 µg/mL | – |

— patent US20150141381A1, “TETRACYCLINE COMPOUNDS HAVING TARGET THERAPEUTIC ACTIVITIES” (Paratek Pharmaceuticals, Inc., priority 2001, published 2015)
